How the values were obtained:
[1] = target: T1, Human PDGFRα, cytoplasmic domain (GST-PDGFRα) (Homo sapiens, UniProt P16234); experiment: Human PDGFRα biochemical inhibition assay (off-chip Mobility Shift Assay)
T1 construct: made in house

[2] = target: T2, Human PDGFRβ, cytoplasmic domain (GST-PDGFRβ) (Homo sapiens, UniProt P09619); experiment: Human PDGFRβ biochemical inhibition assay (off-chip Mobility Shift Assay)
T2 construct: made in house
Procedure, shortened: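 GST-tagged cytoplasmic domain (aa 557-1106) from baculovirus was incubated 1 h at room temperature with compound, CSKtide, ATP at Km and Mg²⁺ in HEPES buffer, pH 7.5. Phosphorylated and unphosphorylated peptide were separated by off-chip mobility shift, and the product ratio P/(P+S) gave percent inhibition.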

T2 sequence (P09619 with tags, fused parts or gaps): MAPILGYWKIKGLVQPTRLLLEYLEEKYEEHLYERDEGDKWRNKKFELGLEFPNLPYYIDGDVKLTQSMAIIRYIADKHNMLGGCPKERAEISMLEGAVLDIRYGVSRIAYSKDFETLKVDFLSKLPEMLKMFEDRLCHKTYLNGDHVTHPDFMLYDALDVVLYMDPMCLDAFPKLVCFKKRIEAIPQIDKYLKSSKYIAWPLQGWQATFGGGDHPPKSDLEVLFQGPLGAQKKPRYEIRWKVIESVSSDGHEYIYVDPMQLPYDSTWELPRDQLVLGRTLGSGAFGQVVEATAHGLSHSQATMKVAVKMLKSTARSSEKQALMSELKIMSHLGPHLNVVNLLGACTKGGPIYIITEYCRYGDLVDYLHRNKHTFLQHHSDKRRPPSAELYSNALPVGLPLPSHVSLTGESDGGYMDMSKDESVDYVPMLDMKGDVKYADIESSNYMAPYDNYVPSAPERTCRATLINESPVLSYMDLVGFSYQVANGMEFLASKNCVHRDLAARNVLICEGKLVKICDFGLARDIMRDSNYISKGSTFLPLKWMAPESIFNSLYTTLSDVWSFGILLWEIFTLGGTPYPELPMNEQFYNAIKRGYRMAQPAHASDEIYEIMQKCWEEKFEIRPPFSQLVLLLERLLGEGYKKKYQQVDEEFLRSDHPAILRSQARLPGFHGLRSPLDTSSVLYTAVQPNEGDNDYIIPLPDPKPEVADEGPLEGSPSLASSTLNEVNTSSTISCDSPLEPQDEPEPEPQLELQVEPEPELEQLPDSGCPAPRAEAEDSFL
T1 sequence (P16234 550-1089 T674I): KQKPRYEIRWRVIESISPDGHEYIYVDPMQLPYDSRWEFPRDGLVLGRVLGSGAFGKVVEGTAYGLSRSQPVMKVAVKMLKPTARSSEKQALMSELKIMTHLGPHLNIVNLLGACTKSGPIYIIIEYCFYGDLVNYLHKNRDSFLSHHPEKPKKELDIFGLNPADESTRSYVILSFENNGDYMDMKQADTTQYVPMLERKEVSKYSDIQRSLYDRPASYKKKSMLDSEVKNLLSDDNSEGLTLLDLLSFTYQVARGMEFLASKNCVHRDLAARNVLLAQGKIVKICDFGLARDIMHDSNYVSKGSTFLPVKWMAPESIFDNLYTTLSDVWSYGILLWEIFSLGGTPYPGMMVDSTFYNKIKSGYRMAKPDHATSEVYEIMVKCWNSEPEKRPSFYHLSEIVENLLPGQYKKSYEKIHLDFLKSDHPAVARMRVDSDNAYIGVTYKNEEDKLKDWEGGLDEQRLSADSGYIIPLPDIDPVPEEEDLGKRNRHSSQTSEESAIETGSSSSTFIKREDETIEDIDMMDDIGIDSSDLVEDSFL

Structure (SMILES)	IC50 [1] [nM]	IC50 [2] [nM]
CCn1cc2ncc(N[C@@H](C)c3cccc(NC(=O)c4ccc(N5CCN(C)CC5)c(C(F)(F)F)c4)c3)nc2n1 [Compound 436, (S)-N-(3-(1-((2-ethyl-2H-pyrazolo[3,4-b]pyrazin-6-yl)amino)ethyl)phenyl)-4-(4-methylpiperazin-1-yl)-3-(trifluoromethyl)benzamide]	< 300	< 300
Cc1n[nH]c2ncc(N[C@@H](C)c3cccc(NC(=O)c4cc(C(F)(F)F)nn4C)c3)nc12 [Compound 548, (S)-1-methyl-N-(3-(1-((3-methyl-1H-pyrazolo[3,4-b]pyrazin-5-yl)amino)ethyl)phenyl)-3-(trifluoromethyl)-1H-pyrazole-5-carboxamide]	< 300	< 300
CCn1cc2ncc(N[C@@H](C)c3cc(NC(=O)Cc4ccc(F)c(C)n4)ccc3F)nc2n1 [Compound 674, (S)-N-(3-(1-((2-ethyl-2H-pyrazolo[3,4-b]pyrazin-6-yl)amino)ethyl)-4-fluorophenyl)-2-(5-fluoro-6-methylpyridin-2-yl) acetamide]	< 300	< 300
CCn1cc2ncc(N[C@@H](C)c3cccc(NC(=O)Cc4ccc(C(F)(F)F)cn4)c3)nc2n1 [Compound 688, (S)-N-(3-(1-((2-ethyl-2H-pyrazolo[3,4-b]pyrazin-6-yl)amino)ethyl)phenyl)-2-(5-(trifluoromethyl)pyridin-2-yl) acetamide]	< 300	≥ 1000
COc1ccc(-n2ccc3ncc(N[C@@H](C)c4cccc(NC(=O)c5cncc(C)c5)c4)nc32)cc1OC [Compound 87, (S)-N-(3-(1-((5-(3,4-dimethoxyphenyl)-5H-pyrrolo [2,3-b]|pyrazin-3-yl)amino)ethyl)phenyl)-5-methylnicotinamide]	< 300	< 300
CCn1cc2ncc(N[C@@H](C)c3cccc(NC(=O)c4cnc(NCCOC)c(C)c4)c3)nc2n1 [Compound 392, (S)-N-(3-(1-((2-ethyl-2H-pyrazolo[3,4-b]pyrazin-6-yl)amino)ethyl)phenyl)-6-((2-methoxyethyl)amino)-5-methylnicotinamide]	300 to 1000	≥ 1000
CCn1cc2ncc(N[C@@H](C)c3cccc(NC(=O)c4ccc(NC(C)C)nc4)c3)nc2n1 [Compound 395, (S)-N-(3-(1-((2-ethyl-2H-pyrazolo[3,4-b]pyrazin-6-yl)amino)ethyl)phenyl)-6-(isopropylamino)nicotinamide]	< 300	300 to 1000
CCn1cc2ncc(N[C@@H](C)c3cccc(NC(=O)c4cnc(OC)s4)c3)nc2n1 [Compound 325, (S)-N-(3-(1-((2-ethyl-2H-pyrazolo[3,4-b]pyrazin-6-yl)amino)ethyl)phenyl)-2-methoxythiazole-5-carboxamide]	≥ 1000	≥ 1000
Cc1ncc(C(=O)Nc2cccc([C@H](C)Nc3cnc4cnn(C)c4n3)c2)cc1C(F)(F)F [Compound 124, (S)-6-methyl-N-(3-(1-((1-methyl-1H-pyrazolo[3,4-b]pyrazin-6-yl)amino)ethyl)phenyl)-5-(trifluoromethyl) nicotinamide]	< 300	< 300
CC(C)c1cc(C(=O)Nc2cccc([C@H](C)Nc3cnc4cnn(C)c4n3)c2)nn1C [Compound 162, (S)-5-isopropyl-1-methyl-N-(3-(1-((1-methyl-1H-pyrazolo[3,4-b]pyrazin-6-yl)amino)ethyl)phenyl)-1H-pyrazole-3-carboxamide]	< 300	< 300
CCn1cc2ncc(N[C@@H](C)c3cccc(NC(=O)c4ccc(C5CC5)nc4)c3)nc2n1 [Compound 283, (S)-6-cyclopropyl-N-(3-(1-((2-ethyl-2H-pyrazolo[3,4-b]pyrazin-6-yl)amino)ethyl)phenyl)nicotinamide]	< 300	< 300
